The values that follow come from BindingDB's records for doi:10.1021/acs.biochem.6b00486 (Academia Sinica, 2016).

In assay [1] the target is T1, IspB protein (Escherichia coli (strain 55989 / EAEC), UniProt B7LHQ0). The assay can be described thus: Fluorescent Assay.
For assay [2], the target named is T1, IspB protein. The assay can be described thus: Radioactive Assay.

T1 sequence (B7LHQ0 whole entry): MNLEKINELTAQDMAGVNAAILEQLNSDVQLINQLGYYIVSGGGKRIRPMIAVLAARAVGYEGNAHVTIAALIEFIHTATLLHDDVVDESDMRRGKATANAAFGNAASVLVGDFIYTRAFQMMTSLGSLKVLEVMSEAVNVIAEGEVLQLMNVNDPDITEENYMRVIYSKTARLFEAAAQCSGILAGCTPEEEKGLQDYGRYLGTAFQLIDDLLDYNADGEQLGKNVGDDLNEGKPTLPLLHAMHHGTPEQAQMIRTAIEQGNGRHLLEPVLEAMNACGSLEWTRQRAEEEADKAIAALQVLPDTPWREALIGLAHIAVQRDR

For orientation: IC50 means the midpoint of a concentration-inhibition curve. For `O=P(O)(O)C(O)(Cn1ccnc1)P(=O)(O)O`, the IC50 was 220 nM in assay [1] and 290 nM in assay [2].
